System: Dent corn (34V52)
Test: Example 14: Growth-promoting effect (dent corn)
Assay type: in vivo
Details: for Increase/decrease of above-ground part / Increase/decrease of underground part: non-addition group = 100%; for Weight of above-ground part FW / Weight of underground part FW: 25° C., 14 days
Experimental: Dent corn (34V52) was sown on pots filled with seedling culture soil (manufactured by Katakura & Co-op Agri Corporation; Kumiai seedling culture soil for gardening Genkikun No. 1) (soil volume, 130 ml). After confirmation of the germination, drenching treatment was carried out with 5 ml each of dilutions of hesperidin prepared at final concentrations of 1 to 10 ppm (using water as the solvent). […]

Structure (SMILES): COc1ccc([C@@H]2CC(=O)c3c(O)cc(O[C@@H]4O[C@H](CO[C@@H]5O[C@@H](C)[C@H](O)[C@@H](O)[C@H]5O)[C@@H](O)[C@H](O)[C@H]4O)cc3O2)cc1O [Hesperidin]
- Increase/decrease of above-ground part (1 ppm): 114%
- Increase/decrease of underground part (1 ppm): 126%
- Increase/decrease of above-ground part (3 ppm): 111%
- Increase/decrease of underground part (3 ppm): 123%
- Increase/decrease of above-ground part (10 ppm): 104%
- Increase/decrease of underground part (10 ppm): 103%
- Weight of above-ground part FW (drenching 1 ppm): 6.5 mg/individual
- Weight of underground part FW (drenching 1 ppm): 5.1 mg/individual
- Weight of above-ground part FW (drenching 3 ppm): 6.3 mg/individual
- Weight of underground part FW (drenching 3 ppm): 5.0 mg/individual
- Weight of above-ground part FW (drenching 10 ppm): 5.9 mg/individual
- Weight of underground part FW (drenching 10 ppm): 4.2 mg/individual
